Molecular target: human activated kallikrein enzyme (Homo sapiens (Human), UniProt P03952)
Test: Inhibition of human activated kallikrein enzyme, fluorogenic peptide substrate assay (two formats)
Format: biochemical
Conditions: Table 2; column head prints nM, ranges defined in μM; read-out: pKal EC50
Experimental: The example compounds were evaluated for inhibition of the human activated kallikrein enzyme in two formats of an assay employing a fluorogenic peptide substrate. In one assay format, the concentrations of reagents were as follows: 20 mM Tris pH 7.5, 1 mM EDTA, 150 mM sodium chloride, 0.1% PEG-400, 0.1% Triton X-100, 500 pM activated kallikrein enzyme, 300 uM Pro-Phe-Arg-7-amido-4-methylcoumarin substrate. Prior to reaction initiation with substrate, enzyme and inhibitors were preincubated for 30 min at room temperature. After initiation with substrate, reactions were incubated for 10 min at room temperature and fluorescence emission at 460 nm from 380 nm excitation measured with a microplate reader. In another assay format, the concentrations of reagents were as follows: 20 mM Tris pH 7.5, 1 mM EDTA, 150 mM sodium chloride, 0.1% PEG-400, 0.1% Triton X-100, 5 pM activated kallikrein enzyme, 300 uM Pro-Phe-Arg-7-amido-4-methylcoumarin substrate. Prior to reaction initiation with substrate, enzyme and inhibitors were preincubated for 30 min at room temperature. After initiation with substrate, reactions were incubated for 18 hr at room temperature and fluorescence emission at 460 nm from 380 nm excitation measured with a microplate reader.

human activated kallikrein enzyme, sequence (P03952 391-638): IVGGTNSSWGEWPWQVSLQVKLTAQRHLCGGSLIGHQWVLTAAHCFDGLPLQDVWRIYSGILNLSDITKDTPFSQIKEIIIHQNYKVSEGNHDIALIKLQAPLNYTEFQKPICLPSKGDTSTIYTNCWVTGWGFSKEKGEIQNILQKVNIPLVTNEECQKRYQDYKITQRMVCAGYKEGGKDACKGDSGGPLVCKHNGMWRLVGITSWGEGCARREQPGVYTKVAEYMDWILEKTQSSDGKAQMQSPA
human activated kallikrein enzyme, sequence (P03952 20-390 partner): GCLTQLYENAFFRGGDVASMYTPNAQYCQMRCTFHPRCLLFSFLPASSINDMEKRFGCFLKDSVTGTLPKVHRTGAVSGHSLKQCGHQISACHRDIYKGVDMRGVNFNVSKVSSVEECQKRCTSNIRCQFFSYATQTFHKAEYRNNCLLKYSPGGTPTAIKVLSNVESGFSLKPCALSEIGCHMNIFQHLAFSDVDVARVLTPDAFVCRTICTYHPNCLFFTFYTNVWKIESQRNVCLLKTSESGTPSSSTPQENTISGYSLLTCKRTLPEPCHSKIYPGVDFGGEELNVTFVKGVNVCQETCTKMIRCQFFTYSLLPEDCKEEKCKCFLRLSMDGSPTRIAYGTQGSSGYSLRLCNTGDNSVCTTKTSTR

EC50 | SMILES
1000 to 5000 nM | CNC(=O)[C@H](CCCCNC(=N)N)NC(=O)c1csc([C@H]2C[C@@H](N)CN2C(=O)c2cn3cc(Cl)ccc3n2)n1 [Compound 1, 2-((2R,4R)-4-amino-1-(6-chloroimidazo[1,2-a]pyridine-2-carbonyl)pyrrolidin-2-yl)-N—((S)-6-guanidino-1-(methylamino)-1-oxohexan-2-yl)thiazole-4-carboxamide]
> 9900 nM | CNC(=O)[C@@H](CCCCNC(=N)N)NC(=O)c1csc([C@H]2C[C@@H](N)CN2C(=O)c2cn3cc(Cl)ccc3n2)n1 [Compound 2, 2-((2R,4R)-4-amino-1-(6-chloroimidazo[1,2-a]pyridine-2-carbonyl)pyrrolidin-2-yl)-N—((R)-6-guanidino-1-(methylamino)-1-oxohexan-2-yl)thiazole-4-carboxamide]
> 9900 nM | CNC(=O)[C@H](CCCCNC(=N)N)NC(=O)c1csc([C@H]2CCCN2C(=O)c2cn3cc(Cl)ccc3n2)n1 [Compound 3, 2-((R)-1-(6-Chloroimidazo[1,2-a]pyridine-2-carbonyl)pyrrolidin-2-yl)-N—((S)-6-guanidino-1-(methylamino)-1-oxohexan-2-yl)thiazole-4-carboxamide]
> 9900 nM | CNC(=O)[C@@H](CCCCNC(=N)N)NC(=O)c1csc([C@H]2CCCN2C(=O)c2cn3cc(Cl)ccc3n2)n1 [Compound 4, 2-((R)-1-(6-Chloroimidazo[1,2-a]pyridine-2-carbonyl)pyrrolidin-2-yl)-N—((R)-6-guanidino-1-(methylamino)-1-oxohexan-2-yl)thiazole-4-carboxamide]
> 9900 nM | CNC(=O)[C@H](CCCCNC(=N)N)NC(=O)c1csc([C@H]2C[C@@H](NC(C)=O)CN2C(=O)c2cn3cc(Cl)ccc3n2)n1 [Compound 5, 2-((2R,4R)-4-acetamido-1-(6-chloroimidazo[1,2-a]pyridine-2-carbonyl)pyrrolidin-2-yl)-N—((S)-6-guanidino-1-(methylamino)-1-oxohexan-2-yl)thiazole-4-carboxamide]
1000 to 5000 nM | CNC(=O)[C@H](CCCCNC(=N)N)NC(=O)c1csc([C@H]2C[C@H](N)CN2C(=O)c2cn3cc(Cl)ccc3n2)n1 [Compound 6, 2-((2R,4S)-4-amino-1-(6-chloroimidazo[1,2-a]pyridine-2-carbonyl)pyrrolidin-2-yl)-N—((S)-6-guanidino-1-(methylamino)-1-oxohexan-2-yl)thiazole-4-carboxamide]
> 9900 nM | CNC(=O)[C@H](CCCCNC(=N)N)NC(=O)c1csc([C@H]2C[C@H](O)CN2C(=O)c2cn3cc(Cl)ccc3n2)n1 [Compound 7, 2-((2R,4S)-1-(6-Chloroimidazo[1,2-a]pyridine-2-carbonyl)-4-hydroxypyrrolidin-2-yl)-N—((S)-6-guanidino-1-(methylamino)-1-oxohexan-2-yl)thiazole-4-carboxamide]
> 9900 nM | CNC(=O)[C@@H](CCCCNC(=N)N)NC(=O)c1csc([C@H]2C[C@H](O)CN2C(=O)c2cn3cc(Cl)ccc3n2)n1 [Compound 8, 2-((2R,4S)-1-(6-Chloroimidazo[,1,2-a]pyridine-2-carbonyl)-4-hydroxypyrrolidin-2-yl)-N—((R)-6-guanidino-1-(methylamino)-1-oxohexan-2-yl)thiazole-4-carboxamide]
> 9900 nM | CNC(=O)[C@H](CCCCNC(=N)N)NC(=O)c1csc([C@H]2C[C@@H](O)CN2C(=O)c2cn3cc(Cl)ccc3n2)n1 [Compound 9, 2-((2R,4R)-1-(6-Chloroimidazo[1,2-a]pyridine-2-carbonyl)-4-hydroxypyrrolidin-2-yl)-N—((S)-6-guanidino-1-(methylamino)-1-oxohexan-2-yl)thiazole-4-carboxamide]
> 9900 nM | CNC(=O)[C@@H](CCCCNC(=N)N)NC(=O)c1csc([C@H]2C[C@@H](O)CN2C(=O)c2cn3cc(Cl)ccc3n2)n1 [Compound 10, 2-((2R,4R)-1-(6-Chloroimidazo[1,2-a]pyridine-2-carbonyl)-4-hydroxypyrrolidin-2-yl)-N—((R)-6-guanidino-1-(methylamino)-1-oxohexan-2-yl)thiazole-4-carboxamide]
≤ 100 nM | CNC(=O)[C@@H](CCCCNC(=N)N)NC(=O)c1csc([C@@H]2C[C@@H](N)CN2C(=O)c2cn3cc(Cl)ccc3n2)n1 [Compound 12, 2-((2S,4R)-4-amino-1-(6-chloroimidazo[1,2-a]pyridine-2-carbonyl)pyrrolidin-2-yl)-N—((R)-6-guanidino-1-(methylamino)-1-oxohexan-2-yl)thiazole-4-carboxamide]
100 to 1000 nM | CNC(=O)[C@H](CCCCNC(=N)N)NC(=O)c1csc([C@@H]2C[C@@H](N)CN2C(=O)c2cn3ccccc3n2)n1 [Compound 13, 2-((2S,4R)-4-amino-1-(imidazo[1,2-a]pyridine-2-carbonyl)pyrrolidin-2-yl)-N—((S)-6-guanidino-1-(methylamino)-1-oxohexan-2-yl)thiazole-4-carboxamide]
> 9900 nM | CNC(=O)[C@H](CCCCNC(=N)N)NC(=O)c1csc([C@@H]2C[C@@H](N)CN2C(=O)c2cn(C)c(C)n2)n1 [Compound 14, 2-((2S,4R)-4-amino-1-(1,2-dimethyl-1H-imidazole-4-carbonyl)pyrrolidin-2-yl)-N—((S)-6-guanidino-1-(methylamino)-1-oxohexan-2-yl)thiazole-4-carboxamide]
> 9900 nM | CNC(=O)[C@H](CCCCNC(=N)N)NC(=O)c1csc([C@@H]2C[C@@H](N)CN2C(=O)c2ccccc2)n1 [Compound 15, 2-((2S,4R)-4-amino-1-benzoylpyrrolidin-2-yl)-N—((S)-6-guanidino-1-(methylamino)-1-oxohexan-2-yl)thiazole-4-carboxamide]
1000 to 5000 nM | CNC(=O)[C@H](CCCCNC(=N)N)NC(=O)c1csc([C@@H]2C[C@@H](N)CN2C(=O)OCc2cccc(Cl)c2)n1 [Compound 16, 3-chlorobenzyl (2S,4R)-4-amino-2-(4-(((S)-6-guanidino-1-(methylamino)-1-oxohexan-2-yl)carbamoyl)thiazol-2-yl)pyrrolidine-1-carboxylate]
> 9900 nM | CNC(=O)[C@H](CCCCNC(=N)N)NC(=O)c1csc([C@@H]2C[C@@H](N)CN2C(=O)C2CCCCC2)n1 [Compound 17, 2-((2S,4R)-4-amino-1-(cyclohexanecarbonyl)pyrrolidin-2-yl)-N—((S)-6-guanidino-1-(methylamino)-1-oxohexan-2-yl)thiazole-4-carboxamide]
> 9900 nM | CNC(=O)[C@H](CCCCNC(=N)N)NC(=O)c1csc([C@@H]2C[C@@H](N)CN2C(=O)C(C)C)n1 [Compound 18, 2-((2S,4R)-4-amino-1-isobutyrylpyrrolidin-2-yl)-N—((S)-6-guanidino-1-(methylamino)-1-oxohexan-2-yl)thiazole-4-carboxamide]
≤ 100 nM | CNC(=O)[C@H](CCCCNC(=N)N)NC(=O)c1csc([C@@H]2C[C@@H](N)CN2C(=O)c2cn3cc(C(F)(F)F)ccc3n2)n1 [Compound 19, 2-((2S,4R)-4-amino-1-(6-(trifluoromethyl)imidazo[1,2-a]pyridine-2-carbonyl)pyrrolidin-2-yl)-N—((S)-6-guanidino-1-(methylamino)-1-oxohexan-2-yl)thiazole-4-carboxamide]
100 to 1000 nM | CNC(=O)[C@H](CCCCNC(=N)N)NC(=O)c1csc([C@@H]2C[C@@H](N)CN2C(=O)c2cn3cc(OC)ccc3n2)n1 [Compound 20, 2-((2S,4R)-4-amino-1-(6-methoxyimidazo[1,2-a]pyridine-2-carbonyl)pyrrolidin-2-yl)-N—((S)-6-guanidino-1-(methylamino)-1-oxohexan-2-yl)thiazole-4-carboxamide]
≤ 100 nM | CNC(=O)[C@H](CCCCNC(=N)N)NC(=O)c1csc([C@@H]2C[C@@H](N)CN2C(=O)c2cn3cc(I)ccc3n2)n1 [Compound 21, 2-((2S,4R)-4-amino-1-(6-iodoimidazo[1,2-a]pyridine-2-carbonyl)pyrrolidin-2-yl)-N—((S)-6-guanidino-1-(methylamino)-1-oxohexan-2-yl)thiazole-4-carboxamide]
≤ 100 nM | N=C(N)NCCCC[C@H](NC(=O)c1csc([C@@H]2C[C@@H](N)CN2C(=O)c2cn3cc(Cl)ccc3n2)n1)C(N)=O [Compound 22, 2-((2S,4R)-4-amino-1-(6-chloroimidazo[1,2-a]pyridine-2-carbonyl)pyrrolidin-2-yl)-N—((S)-1-amino-6-guanidino-1-oxohexan-2-yl)thiazole-4-carboxamide]
≤ 100 nM | N=C(N)NCCCC[C@H](NC(=O)c1csc([C@@H]2C[C@@H](N)CN2C(=O)c2cn3cc(Cl)ccc3n2)n1)C(=O)O [Compound 23, N^2-(2-((2S,4R)-4-amino-1-(6-chloroimidazo[1,2-a]pyridine-2-carbonyl)pyrrolidin-2-yl)thiazole-4-carbonyl)-N6-carbamimidoyl-L-lysine]
100 to 1000 nM | CN(C)C(=O)[C@H](CCCCNC(=N)N)NC(=O)c1csc([C@@H]2C[C@@H](N)CN2C(=O)c2cn3cc(Cl)ccc3n2)n1 [Compound 24, 2-((2S,4R)-4-amino-1-(6-chloroimidazo[1,2-a]pyridine-2-carbonyl)pyrrolidin-2-yl)-N—((S)-1-(dimethylamino)-6-guanidino-1-oxohexan-2-yl)thiazole-4-carboxamide]
> 9900 nM | CNC(=O)[C@H](CCCCN)NC(=O)c1csc([C@@H]2C[C@@H](N)CN2C(=O)c2cn3cc(Cl)ccc3n2)n1 [Compound 25, 2-((2S,4R)-4-amino-1-(6-chloroimidazo[1,2-a]pyridine-2-carbonyl)pyrrolidin-2-yl)-N—((S)-6-amino-1-(methylamino)-1-oxohexan-2-yl)thiazole-4-carboxamide]

Source: patent US11168083B2, “Inhibitors of Plasma Kallikrein and uses thereof” (Takeda Pharmaceutical Company Limited, priority 2017, dated 2021)
